Laboratory results taken from BindingDB's records for doi:10.1021/acs.jnatprod.5b00104 (Peking Union Medical College, 2015).

What follows are compounds tested against T1, X-box-binding protein 1 (Rattus norvegicus, UniProt Q9R1S4) (assay: ChEBML_1526682).
T1 sequence (Q9R1S4 whole entry): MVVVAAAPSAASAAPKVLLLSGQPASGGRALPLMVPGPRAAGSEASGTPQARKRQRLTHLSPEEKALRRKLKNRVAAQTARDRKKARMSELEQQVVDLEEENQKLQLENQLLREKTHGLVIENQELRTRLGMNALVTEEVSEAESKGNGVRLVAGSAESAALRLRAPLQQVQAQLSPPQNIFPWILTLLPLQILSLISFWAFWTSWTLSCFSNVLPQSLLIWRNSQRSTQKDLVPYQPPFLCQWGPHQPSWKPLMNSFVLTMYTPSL
Excerpt: Transactivation of XBP1 in rat IEC-6 cells after 48 hrs by dual luciferase reporter gene assay

EC50 [nM] | SMILES
340 | C/C1=C/C[C@@H](O)[C@@]2(C)CC[C@@](C(C)C)(C[C@@H](O)[C@]3(C)CC[C@H]1O3)O2
1140 | CC(C)[C@@]12CC[C@@](C)(O1)[C@H](O)CC/C(C=O)=C/CC[C@@]1(C)O[C@@H]1C2
880 | C/C1=C\[C@@H](O)C[C@@]2(C)O[C@@H]2C[C@]2(C(C)C)CC[C@@](C)(O2)[C@H](O)CC1=O
420 | C/C1=C\CC[C@@]2(C)O[C@@H]2C[C@]2(C(C)C)CC[C@@](C)(O2)[C@H](O)CC1=O
